Test results from patent US20240165264A1, “T CELL ACTIVATION” (The University of Birmingham, priority 2022, published 2024).

Assays:
[1] = system: CD4+ T cells from the Nr4a3-FT mouse; test: Flow cytometry analysis of T cell activation markers after magnetic force application to MNP-bound cells; type: cell-based; conditions: blockade of actin cytoskeletal dynamics
Experimental: (§1) Splenic tissue was sourced from Nr4a3—fluorescent timer (Nr4a3-FT) reporter mice or from Tg4 transgenic mice, kindly provided by the laboratories of Dr David Bending (University of Birmingham) or Professor David Wraith (University of Birmingham) respectively. CD4+ T cells were purified by negative selection as per the manufacturer's instructions (Invitrogen, magnisort mouse CD4+ enrichment kit, 8804-6821-74) and CD4+ T cell purity was ≥95% in all experiments. Isolated CD4+ T cells were treated with functionalized MNPs for 30 minutes on ice, to final concentrations of 5×10^5 cells and 50 μg/ml MNPs respectively. Cells were then washed three times in PBS by 5 minutes of centrifugation at 300 g, before resuspension at 1×10^6/ml and use in force application experiments.
(§2) Cells treated with MNPs were subjected to external magnetic force through use of the Magnetic Ion Channel Activation (MICA) platform for force application as previously described (Henstock et al., 2018; Hughes et al., 2008). […] In all experiments shown, oscillations were set at 1 Hz and the plate was positioned 3 mm away from the particles in the on position. Force was applied for time frames shown, before assessment of biological T cell activity as described herein.
Following force application for time frames indicated, cells were maintained in a 37° C. […]

Nr4a3-FT CD4+ T cells = test: Force induced TCR downregulation (TCRlo) by flow cytometry; type: cell-based, mouse; conditions: Latrunculin A 0.25 and 1 μM; cells with 250 nm particles and force
Experimental: as §1, §2
Where indicated, cells were treated with Latrunculin A (Tocris, C973) to final concentrations of 0.25 and 1 μM. […]

For `C/C1=C/C(=O)O[C@@H]2C[C@@H](CC[C@H](C)/C=C\C=C\CC1)O[C@@](O)([C@@H]1CSC(=O)N1)C2` [Latrunculin A], the “effect on force induced T cell activation” value [1] was “prevents TCR downregulation and T cell activation”, the “effect on force induced TCR downregulation” value (Nr4a3-FT CD4+ T cells) was “prevents force induced TCR downregulation” and the “effect on population of cells that are TCRlo and Nr4a3 positive” value (Nr4a3-FT CD4+ T cells) was “prevents the establishment of a population of cells that are TCRlo and Nr4a3 positive”.
